Key:
[1] = target: T1, NAD(H) kinase (MfnK) (Micrococcus luteus, UniProt Q8VUL9); assay: NADPH formation detected by mBFP fluorescence; format: biochemical; conditions: 50 mM Tris-HCl pH 7.5, 0.1 mM MgCl2, 0.5 mM ATP, 0.5 mM NADH
T1 construct: full-length gene from genomic DNA, C-terminal His tag (pET-22b(+)), expressed in E. coli BL21(DE3), purified
T1 sequence (Q8VUL9 1-362): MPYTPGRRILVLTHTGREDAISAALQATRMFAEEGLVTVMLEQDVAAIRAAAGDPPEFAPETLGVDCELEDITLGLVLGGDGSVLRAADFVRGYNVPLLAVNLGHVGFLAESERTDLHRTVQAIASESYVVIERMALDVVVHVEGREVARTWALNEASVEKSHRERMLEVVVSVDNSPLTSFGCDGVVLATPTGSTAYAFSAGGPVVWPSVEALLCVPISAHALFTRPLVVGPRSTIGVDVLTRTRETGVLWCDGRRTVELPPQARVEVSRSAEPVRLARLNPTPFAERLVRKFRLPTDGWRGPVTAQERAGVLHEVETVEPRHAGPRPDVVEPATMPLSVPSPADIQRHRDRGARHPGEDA

[2] = target: T2, mBFP (metagenome-derived blue fluorescent protein) (uncultured bacterium, UniProt D6NKF4); assay: fluorescence enhancement of NADPH upon mBFP addition (ex […] nm, em […] nm); format: binding; conditions: […] Tris-HCl pH […] °C
T2 construct: full length, 248 amino acids, N-terminal 6-His tag kept (pQE30), expressed in E. coli XL1-Blue
T2 sequence (D6NKF4 1-248): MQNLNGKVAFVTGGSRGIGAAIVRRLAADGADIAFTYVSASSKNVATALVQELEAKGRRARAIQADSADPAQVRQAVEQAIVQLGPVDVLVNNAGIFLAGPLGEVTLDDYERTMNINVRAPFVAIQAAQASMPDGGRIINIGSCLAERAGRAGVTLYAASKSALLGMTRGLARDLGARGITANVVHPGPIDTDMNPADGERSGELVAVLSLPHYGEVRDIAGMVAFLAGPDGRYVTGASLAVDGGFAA

[3] = target: T2, mBFP (metagenome-derived blue fluorescent protein); assay: competition with NADPH, attenuation of mBFP-NADPH fluorescence; format: binding; conditions: […] Tris-HCl pH […] °C; competitive with NADPH; excess NADP+

Structure (SMILES): NC(=O)C1=CN([C@@H]2O[C@H](COP(=O)(O)OP(=O)(O)OC[C@H]3O[C@@H](n4cnc5c(N)ncnc54)[C@H](O)[C@@H]3O)[C@@H](O)[C@H]2O)C=CC1 [NADH]
- NADPH formation detected by mBFP fluorescence [1]: enzymatic conversion of NADH to NADPH by MfnK as a function of the NADH amount

Structure (SMILES): NC(=O)C1=CN([C@@H]2O[C@H](COP(=O)(O)OP(=O)(O)OC[C@H]3O[C@@H](n4cnc5c(N)ncnc54)[C@H](OP(=O)(O)O)[C@@H]3O)[C@@H](O)[C@H]2O)C=CC1 [NADPH]
- fluorescence enhancement of NADPH upon mBFP addition (ex 350 nm, em 450 nm) [2]: An immediate enhancement of fluorescence was detected when the purified mBFP was added

Structure (SMILES): NC(=O)c1ccc[n+]([C@@H]2O[C@H](COP(=O)(O)OP(=O)(O)OC[C@H]3O[C@@H](n4cnc5c(N)ncnc54)[C@H](OP(=O)(O)O)[C@@H]3O)[C@@H](O)[C@H]2O)c1 [NADP^+]
- competition with NADPH, attenuation of mBFP-NADPH fluorescence [3]: excess NADP^+ resulted in competition for mBFP binding and attenuated the NADPH fluorescence enhancement

— paper PMC6370209, “Rapid and sensitive detection of NADPH via mBFP-mediated enhancement of its fluorescence” (PLoS ONE, 2019)
